Measurements: patent US7109338B2, “1,2-disubstituted 1,4-dihydro-4-oxoquinoline compounds” (priority 1999, dated 2006)
In brackets after ≈: the same amount, converted by molar mass.

Key:
[1] = test system: HRV 89 (41617-Gallo); assay: Anti-rhinovirus activity (MTT), HRV89; assay type: cell-based, human rhinovirus; set-up: Anti-Rhinovirus activity, HRV89: unit not given here; settings: for IC50 HRV89: HeLa (Ohio strain) cells, MTT method, 33° C.
[2] = test system: HRV 2 (HGP); assay: Anti-rhinovirus activity (MTT), HRV2; assay type: cell-based, human rhinovirus; set-up: Anti-Rhinovirus activity, HRV2: unit not given here; settings: for IC50 HRV2: HeLa (Ohio strain) cells, MTT method, 33° C.
[3] = test system: HRV33 (1200); assay: Anti-rhinovirus spectrum (MTT), HRV33; assay type: cell-based, human rhinovirus; set-up: Anti-Rhinovirus activity, HRV33: unit not given here; settings: HRV33
[4] = test system: HRV32 (363); assay: Anti-rhinovirus spectrum (MTT), HRV32; assay type: cell-based, human rhinovirus; set-up: Anti-Rhinovirus activity, HRV32: unit not given here; settings: HRV32
[5] = test system: HRV13 (353); assay: Anti-rhinovirus spectrum (MTT), HRV13; assay type: cell-based, human rhinovirus; set-up: Anti-Rhinovirus activity, HRV13: unit not given here; settings: HRV13
[6] = test system: HRV5; assay: Anti-rhinovirus spectrum (MTT), HRV5; assay type: cell-based, human rhinovirus; set-up: Anti-Rhinovirus activity, HRV5: unit not given here; settings: HRV5
[7] = test system: HRV31 (41F); assay: Anti-rhinovirus spectrum (MTT), HRV31; assay type: cell-based, human rhinovirus; set-up: Anti-Rhinovirus activity, HRV31: unit not given here; settings: HRV31
[8] = test system: HRV21 (47); assay: Anti-rhinovirus spectrum (MTT), HRV21; assay type: cell-based, human rhinovirus; set-up: Anti-Rhinovirus activity, HRV21: unit not given here; settings: HRV21
[9] = test system: HRV41 (56110); assay: Anti-rhinovirus spectrum (MTT), HRV41; assay type: cell-based, human rhinovirus; set-up: Anti-Rhinovirus activity, HRV41: unit not given here; settings: HRV41
[10] = test system: HeLa cells; assay: Cytotoxicity (MTT, without virus), HeLa; settings: HeLa, no virus, incubated for 4 days
[11] = test system: HRV61 (6669-CV39); assay: Anti-rhinovirus spectrum (MTT), HRV61; assay type: cell-based, human rhinovirus; set-up: Anti-Rhinovirus activity, HRV61: unit not given here; settings: HRV61
[12] = test system: HRV39 (209); assay: Anti-rhinovirus spectrum (MTT), HRV39; assay type: cell-based, human rhinovirus; set-up: Anti-Rhinovirus activity, HRV39: unit not given here; settings: HRV39
[13] = test system: HRV8(MRH); assay: Anti-rhinovirus spectrum (MTT), HRV8; assay type: cell-based, human rhinovirus; set-up: Anti-Rhinovirus activity, HRV8: unit not given here; settings: HRV8
[14] = test system: HRV16 (11757); assay: Anti-rhinovirus spectrum (MTT), HRV16; assay type: cell-based, human rhinovirus; set-up: Anti-Rhinovirus activity, HRV16: unit not given here; settings: HRV16
[15] = test system: HRV3(FEB); assay: Anti-rhinovirus spectrum (MTT), HRV3; assay type: cell-based, human rhinovirus; set-up: Anti-Rhinovirus activity, HRV3: unit not given here; settings: HRV3
[16] = test system: echovirus type 11 (Echo 11, Gregory); assay: In vitro anti-picornavirus activity (MTT), Echo 11; assay type: cell-based; settings: HeLa-S3 cells, MTT method, 37° C.
[17] = test system: Poliovirus type 1 (Polio 1, Sabin); assay: microbe, parasite or virus in culture; assay type: cell-based
[18] = test system: HRV50(A2#58); assay: Anti-rhinovirus spectrum (MTT), HRV50; assay type: cell-based, human rhinovirus; set-up: Anti-Rhinovirus activity, HRV50: unit not given here; settings: HRV50
[19] = test system: HRV1A (E28); assay: Anti-rhinovirus activity (MTT), HRV1A; assay type: cell-based, human rhinovirus; set-up: Anti-Rhinovirus activity, HRV1A: unit not given here; settings: for IC50 HRV 1A: HeLa (Ohio strain) cells, MTT method, 33° C.
[20] = test system: HRV10 (204-CV14); assay: Anti-rhinovirus spectrum (MTT), HRV10; assay type: cell-based, human rhinovirus; set-up: Anti-Rhinovirus activity, HRV10: unit not given here; settings: HRV10
[21] = test system: HRV36 (342H); assay: Anti-rhinovirus spectrum (MTT), HRV36; assay type: cell-based, human rhinovirus; set-up: Anti-Rhinovirus activity, HRV36: unit not given here; settings: HRV36
[22] = test system: HeLa (Ohio strain)cells; assay: Cytotoxicity (MTT, without virus), HeLa(Ohio); settings: HeLa(Ohio), no virus, incubated for 4 days
[23] = test system: HeLa-S3 cells; assay: Cytotoxicity (MTT, without virus), HeLa-S3; settings: HeLa-S3, no virus, incubated for 4 days
[24] = test system: HRV14 (1059); assay: Anti-rhinovirus activity (MTT), HRV14; assay type: cell-based, human rhinovirus; set-up: Anti-Rhinovirus activity, HRV14: unit not given here; settings: for IC50 HRV 14: HeLa (Ohio strain) cells, MTT method, 33° C.
[25] = test system: coxsackievirus type B4 (CB4,JVB); assay: In vitro anti-picornavirus activity (MTT), CB4; assay type: cell-based; settings: HeLa cells, MTT method, 37° C.
[26] = test system: coxsackievirus type A7 (CA7); assay: In vitro anti-picornavirus activity (MTT), CA7; assay type: cell-based; settings: HeLa-S3 cells, MTT method, 37° C.
[27] = test system: clinical isolate (89229T); assay: microbe, parasite or virus in culture; assay type: cell-based, human rhinovirus; set-up: Anti-Rhinovirus activity, Clinical isolated strain: unit not given here; settings: Clinical isolated strain
[28] = test system: human rhinovirus type 1B (HRV 1B, B632); assay: Anti-rhinovirus activity (MTT), HRV1B; assay type: cell-based; set-up: Anti-Rhinovirus activity, HRV1B: unit not given here; settings: for IC50 HRV1B: HeLa (Ohio strain) cells, MTT method, 33° C.
[29] = test system: HRV29 (5582); assay: Anti-rhinovirus spectrum (MTT), HRV29; assay type: cell-based, human rhinovirus; set-up: Anti-Rhinovirus activity, HRV29: unit not given here; settings: HRV29

## CCn1c2c(c(=O)c3c(C(C)C)c(OC)ccc31)Cc1ccccc1-2 [Compound B7]
[1]
  Anti-Rhinovirus activity, HRV89: 0.30
  IC50 HRV89: 0.30 µg/mL (≈ 0.9 µM)
[2]
  Anti-Rhinovirus activity, HRV2: 0.36
  IC50 HRV2: 0.36 µg/mL (≈ 1.08 µM)
[3]
  Anti-Rhinovirus activity, HRV33: 0.097
[4]
  Anti-Rhinovirus activity, HRV32: 0.30
[5]
  Anti-Rhinovirus activity, HRV13: 0.13
[6]
  Anti-Rhinovirus activity, HRV5: 0.22
[7]
  Anti-Rhinovirus activity, HRV31: 0.13
[8]
  Anti-Rhinovirus activity, HRV21: 0.11
[9]
  Anti-Rhinovirus activity, HRV41: 0.064
[10]
  Cytotoxicity CC50 HeLa: >2.5 µg/mL
[11]
  Anti-Rhinovirus activity, HRV61: 0.28
[12]
  Anti-Rhinovirus activity, HRV39: 0.38
[13]
  Anti-Rhinovirus activity, HRV8: 0.32
[14]
  Anti-Rhinovirus activity, HRV16: 0.98
[15]
  Anti-Rhinovirus activity, HRV3: 0.49
[16]
  IC50 Echo 11: 0.25 µg/mL (≈ 0.75 µM)
[17]
  IC50 Polio 1: 0.42 µg/mL (≈ 1.26 µM)
[18]
  Anti-Rhinovirus activity, HRV50: 0.12
[19]
  Anti-Rhinovirus activity, HRV1A: 1.7
  IC50 HRV 1A: 1.7 µg/mL (≈ 5.1 µM)
[20]
  Anti-Rhinovirus activity, HRV10: 0.41
[21]
  Anti-Rhinovirus activity, HRV36: 0.16
[22]
  Cytotoxicity CC50 HeLa(Ohio): >2.5 µg/mL
[23]
  Cytotoxicity CC50 HeLa-S3: >2.5 µg/mL
[24]
  Anti-Rhinovirus activity, HRV14: 0.49
  IC50 HRV 14: 0.49 µg/mL (≈ 1.47 µM)
[25]
  IC50 CB4: 0.52 µg/mL (≈ 1.56 µM)
[26]
  IC50 CA7: 1.4 µg/mL (≈ 4.2 µM)
[27]
  Anti-Rhinovirus activity, Clinical isolated strain: 0.50
[28]
  Anti-Rhinovirus activity, HRV1B: 0.20
  IC50 HRV1B: 0.17 µg/mL (≈ 0.51 µM)
[29]
  Anti-Rhinovirus activity, HRV29: 0.43

## CCn1c2c(c(=O)c3cc(C(C)C)ccc31)Cc1cc(OC)ccc1-2 [Compound B10]
[1]
  Anti-Rhinovirus activity, HRV89: 0.33
  IC50 HRV89: 0.33 µg/mL (≈ 0.99 µM)
[2]
  Anti-Rhinovirus activity, HRV2: 0.16
  IC50 HRV2: 0.16 µg/mL (≈ 0.48 µM)
[3]
  Anti-Rhinovirus activity, HRV33: 0.11
[4]
  Anti-Rhinovirus activity, HRV32: 0.36
[5]
  Anti-Rhinovirus activity, HRV13: 0.12
[6]
  Anti-Rhinovirus activity, HRV5: 0.24
[7]
  Anti-Rhinovirus activity, HRV31: 0.15
[8]
  Anti-Rhinovirus activity, HRV21: 0.16
[9]
  Anti-Rhinovirus activity, HRV41: 0.007
[10]
  Cytotoxicity CC50 HeLa: >2.5 µg/mL
[11]
  Anti-Rhinovirus activity, HRV61: 0.24
[12]
  Anti-Rhinovirus activity, HRV39: 0.39
[13]
  Anti-Rhinovirus activity, HRV8: 0.20
[14]
  Anti-Rhinovirus activity, HRV16: 0.57
[15]
  Anti-Rhinovirus activity, HRV3: 0.48
[16]
  IC50 Echo 11: 0.14 µg/mL (≈ 0.42 µM)
[17]
  IC50 Polio 1: 0.17 µg/mL (≈ 0.51 µM)
[18]
  Anti-Rhinovirus activity, HRV50: 0.10
[19]
  Anti-Rhinovirus activity, HRV1A: 1.9
  IC50 HRV 1A: 1.9 µg/mL (≈ 5.7 µM)
[20]
  Anti-Rhinovirus activity, HRV10: 0.41
[21]
  Anti-Rhinovirus activity, HRV36: 0.17
[22]
  Cytotoxicity CC50 HeLa(Ohio): >2.5 µg/mL
[23]
  Cytotoxicity CC50 HeLa-S3: >2.5 µg/mL
[24]
  Anti-Rhinovirus activity, HRV14: 0.52
  IC50 HRV 14: 0.52 µg/mL (≈ 1.56 µM)
[25]
  IC50 CB4: 0.57 µg/mL (≈ 1.71 µM)
[26]
  IC50 CA7: 1.4 µg/mL (≈ 4.2 µM)
[27]
  Anti-Rhinovirus activity, Clinical isolated strain: 0.75
[28]
  Anti-Rhinovirus activity, HRV1B: 0.25
  IC50 HRV1B: 0.25 µg/mL (≈ 0.75 µM)
[29]
  Anti-Rhinovirus activity, HRV29: 0.44

## CCn1c2c(c(=O)c3cc(CC(C)C)ccc31)Cc1cc(OC)ccc1-2 [Compound B12]
[1]
  Anti-Rhinovirus activity, HRV89: 0.31
  IC50 HRV89: 0.31 µg/mL (≈ 0.892 µM)
[2]
  Anti-Rhinovirus activity, HRV2: 0.31
  IC50 HRV2: 0.31 µg/mL (≈ 0.892 µM)
[3]
  Anti-Rhinovirus activity, HRV33: 0.12
[4]
  Anti-Rhinovirus activity, HRV32: 0.33
[5]
  Anti-Rhinovirus activity, HRV13: 0.091
[6]
  Anti-Rhinovirus activity, HRV5: 0.29
[7]
  Anti-Rhinovirus activity, HRV31: 0.11
[8]
  Anti-Rhinovirus activity, HRV21: 0.17
[9]
  Anti-Rhinovirus activity, HRV41: 0.11
[10]
  Cytotoxicity CC50 HeLa: >2.5 µg/mL
[11]
  Anti-Rhinovirus activity, HRV61: 0.31
[12]
  Anti-Rhinovirus activity, HRV39: 0.38
[13]
  Anti-Rhinovirus activity, HRV8: 0.32
[14]
  Anti-Rhinovirus activity, HRV16: 1.4
[15]
  Anti-Rhinovirus activity, HRV3: 0.52
[16]
  IC50 Echo 11: 0.19 µg/mL (≈ 0.547 µM)
[17]
  IC50 Polio 1: 0.39 µg/mL (≈ 1.12 µM)
[18]
  Anti-Rhinovirus activity, HRV50: 0.12
[19]
  Anti-Rhinovirus activity, HRV1A: >2.5
  IC50 HRV 1A: >2.5 µg/mL
[20]
  Anti-Rhinovirus activity, HRV10: 0.43
[21]
  Anti-Rhinovirus activity, HRV36: 0.21
[22]
  Cytotoxicity CC50 HeLa(Ohio): >2.5 µg/mL
[23]
  Cytotoxicity CC50 HeLa-S3: >2.5 µg/mL
[24]
  Anti-Rhinovirus activity, HRV14: 0.43
  IC50 HRV 14: 0.43 µg/mL (≈ 1.24 µM)
[25]
  IC50 CB4: 0.63 µg/mL (≈ 1.81 µM)
[26]
  IC50 CA7: 2.0 µg/mL (≈ 5.76 µM)
[27]
  Anti-Rhinovirus activity, Clinical isolated strain: 0.46
[28]
  Anti-Rhinovirus activity, HRV1B: 0.25
  IC50 HRV1B: 0.25 µg/mL (≈ 0.72 µM)
[29]
  Anti-Rhinovirus activity, HRV29: 0.44
